Species: Rattus norvegicus
Test: DrugMatrix - Regimen: Daily Repeat
Assay type: toxicity, organism-based, Sprague-Dawley
Design: regimen Daily Repeat, gender Male, age 6-8 weeks
Conditions: in vivo, po, route oral GAVAGE, […]; for ABSOLUTE BASOPHIL / ABSOLUTE EOSINOPHIL / ABSOLUTE LYMPHOCYTE / ABSOLUTE MONOCYTE / ABSOLUTE SEGMENTED NEUTROPHIL / BASOPHIL / EOSINOPHIL / ERYTHROCYTE COUNT / HEMATOCRIT / HEMOGLOBIN / LEUKOCYTE COUNT / LYMPHOCYTE / MEAN CORPUSCULAR HEMOGLOBIN / MEAN CORPUSCULAR HEMOGLOBIN CONCENTRATION / MEAN CORPUSCULAR VOLUME / MONOCYTE / NEUTROPHIL / NUCLEATED RED BLOOD CELLS / PLATELET COUNT: tissue Blood; for ALANINE AMINOTRANSFERASE / ALBUMIN / ALKALINE PHOSPHATASE / ASPARTATE AMINOTRANSFERASE / BLOOD UREA NITROGEN / CARBON DIOXIDE / CHLORIDE / CHOLESTEROL / CREATINE PHOSPHOKINASE / CREATININE / GLUCOSE / LACTATE DEHYDROGENASE / LIPASE / PHOSPHORUS / POTASSIUM / SODIUM / TOTAL BILIRUBIN / TOTAL PROTEIN / URIC ACID: tissue Plasma
[1] = 0 mg/kg, 72 h, dose level Control, time 3 day
[2] = 0 mg/kg, 120 h, dose level Control, time 5 day
[3] = 15 mg/kg, 72 h, dose level Low, time 3 day
[4] = 15 mg/kg, 120 h, dose level Low, time 5 day

CC(C)C(=O)Nc1ccc([N+](=O)[O-])c(C(F)(F)F)c1 [FLUTAMIDE]
ABSOLUTE BASOPHIL [1]: 0 CELLS/uL | ABSOLUTE EOSINOPHIL [1]: 13.67 CELLS/uL | ABSOLUTE LYMPHOCYTE [1]: 10069.5 CELLS/uL | ABSOLUTE MONOCYTE [1]: 50 CELLS/uL | ABSOLUTE SEGMENTED NEUTROPHIL [1]: 516.83 CELLS/uL | BASOPHIL [1]: 0% | EOSINOPHIL [1]: 0.17% | ERYTHROCYTE COUNT [1]: 5.44 x10E6/uL | HEMATOCRIT [1]: 33.88% | HEMOGLOBIN [1]: 13.23 G/DL | LEUKOCYTE COUNT [1]: 10.65 x10E3/uL | LYMPHOCYTE [1]: 94.67% | MEAN CORPUSCULAR HEMOGLOBIN [1]: 24.37 pg | MEAN CORPUSCULAR HEMOGLOBIN CONCENTRATION [1]: 39.05 G/DL | MEAN CORPUSCULAR VOLUME [1]: 62.38 fL | MONOCYTE [1]: 0.67% | NEUTROPHIL [1]: 4.5% | NUCLEATED RED BLOOD CELLS [1]: 0.33 /100WBC | PLATELET COUNT [1]: 414.5 x10E3/uL | ALANINE AMINOTRANSFERASE [1]: 72 u/L | ALBUMIN [1]: 3.75 G/DL | ALKALINE PHOSPHATASE [1]: 375 u/L | ASPARTATE AMINOTRANSFERASE [1]: 87.5 u/L | BLOOD UREA NITROGEN [1]: 14 mg/dL | CARBON DIOXIDE [1]: 27.5 mmol/L | CHLORIDE [1]: 95.83 MEQ/L | CHOLESTEROL [1]: 68.5 mg/dL | CREATINE PHOSPHOKINASE [1]: 284.33 u/L | CREATININE [1]: 0.16 mg/dL | GLUCOSE [1]: 156.67 mg/dL | LACTATE DEHYDROGENASE [1]: 101.83 u/L | LIPASE [1]: 9.67 u/L | PHOSPHORUS [1]: 10.33 mg/dL | POTASSIUM [1]: 5.22 MEQ/L | SODIUM [1]: 137.67 MEQ/L | TOTAL BILIRUBIN [1]: 0.13 mg/dL | TOTAL PROTEIN [1]: 5.43 G/DL | URIC ACID [1]: 0.8 mg/dL | ABSOLUTE BASOPHIL [2]: 0 CELLS/uL | ABSOLUTE EOSINOPHIL [2]: 20.67 CELLS/uL | ABSOLUTE LYMPHOCYTE [2]: 11518.33 CELLS/uL | ABSOLUTE MONOCYTE [2]: 47 CELLS/uL | ABSOLUTE SEGMENTED NEUTROPHIL [2]: 614 CELLS/uL | BASOPHIL [2]: 0% | EOSINOPHIL [2]: 0.17% | ERYTHROCYTE COUNT [2]: 5.61 x10E6/uL | HEMATOCRIT [2]: 34.25% | HEMOGLOBIN [2]: 13.38 G/DL | LEUKOCYTE COUNT [2]: 12.2 x10E3/uL | LYMPHOCYTE [2]: 94.33% | MEAN CORPUSCULAR HEMOGLOBIN [2]: 23.83 pg | MEAN CORPUSCULAR HEMOGLOBIN CONCENTRATION [2]: 39.08 G/DL | MEAN CORPUSCULAR VOLUME [2]: 61.03 fL | MONOCYTE [2]: 0.33% | NEUTROPHIL [2]: 5.17% | NUCLEATED RED BLOOD CELLS [2]: 0 /100WBC | PLATELET COUNT [2]: 941.83 x10E3/uL | ALANINE AMINOTRANSFERASE [2]: 68.83 u/L | ALBUMIN [2]: 4.12 G/DL | ALKALINE PHOSPHATASE [2]: 492.67 u/L | ASPARTATE AMINOTRANSFERASE [2]: 83.33 u/L | BLOOD UREA NITROGEN [2]: 14 mg/dL | CARBON DIOXIDE [2]: 37 mmol/L | CHLORIDE [2]: 98.67 MEQ/L | CHOLESTEROL [2]: 56.5 mg/dL | CREATINE PHOSPHOKINASE [2]: 167.33 u/L | CREATININE [2]: 0.17 mg/dL | GLUCOSE [2]: 157.5 mg/dL | LACTATE DEHYDROGENASE [2]: 104.83 u/L | LIPASE [2]: 10 u/L | PHOSPHORUS [2]: 10.43 mg/dL | POTASSIUM [2]: 5.46 MEQ/L | SODIUM [2]: 143.87 MEQ/L | TOTAL BILIRUBIN [2]: 0.17 mg/dL | TOTAL PROTEIN [2]: 5.72 G/DL | URIC ACID [2]: 0.85 mg/dL | ABSOLUTE BASOPHIL [3]: 0 CELLS/uL | ABSOLUTE EOSINOPHIL [3]: 10.67 CELLS/uL | ABSOLUTE LYMPHOCYTE [3]: 6470.33 CELLS/uL | ABSOLUTE MONOCYTE [3]: 86 CELLS/uL | ABSOLUTE SEGMENTED NEUTROPHIL [3]: 599.67 CELLS/uL | BASOPHIL [3]: 0% | EOSINOPHIL [3]: 0.33% | ERYTHROCYTE COUNT [3]: 5.25 x10E6/uL | HEMATOCRIT [3]: 32.9% | HEMOGLOBIN [3]: 13.03 G/DL | LEUKOCYTE COUNT [3]: 7.17 x10E3/uL | LYMPHOCYTE [3]: 91.67% | MEAN CORPUSCULAR HEMOGLOBIN [3]: 24.87 pg | MEAN CORPUSCULAR HEMOGLOBIN CONCENTRATION [3]: 39.6 G/DL | MEAN CORPUSCULAR VOLUME [3]: 62.8 fL | MONOCYTE [3]: 1% | NEUTROPHIL [3]: 7% | NUCLEATED RED BLOOD CELLS [3]: 0 /100WBC | PLATELET COUNT [3]: 851.33 x10E3/uL | ALANINE AMINOTRANSFERASE [3]: 92 u/L | ALBUMIN [3]: 3.97 G/DL | ALKALINE PHOSPHATASE [3]: 441.67 u/L | ASPARTATE AMINOTRANSFERASE [3]: 111 u/L | BLOOD UREA NITROGEN [3]: 12.33 mg/dL | CARBON DIOXIDE [3]: 27.67 mmol/L | CHLORIDE [3]: 95.5 MEQ/L | CHOLESTEROL [3]: 77.67 mg/dL | CREATINE PHOSPHOKINASE [3]: 476.67 u/L | CREATININE [3]: 0.33 mg/dL | GLUCOSE [3]: 152 mg/dL | LACTATE DEHYDROGENASE [3]: 156.33 u/L | LIPASE [3]: 13.67 u/L | PHOSPHORUS [3]: 9.97 mg/dL | POTASSIUM [3]: 5.27 MEQ/L | SODIUM [3]: 138.85 MEQ/L | TOTAL BILIRUBIN [3]: 0.17 mg/dL | TOTAL PROTEIN [3]: 5.23 G/DL | URIC ACID [3]: 0.7 mg/dL | ABSOLUTE BASOPHIL [4]: 0 CELLS/uL | ABSOLUTE EOSINOPHIL [4]: 0 CELLS/uL | ABSOLUTE LYMPHOCYTE [4]: 8137.67 CELLS/uL | ABSOLUTE MONOCYTE [4]: 25 CELLS/uL | ABSOLUTE SEGMENTED NEUTROPHIL [4]: 504 CELLS/uL | BASOPHIL [4]: 0% | EOSINOPHIL [4]: 0% | ERYTHROCYTE COUNT [4]: 6.06 x10E6/uL | HEMATOCRIT [4]: 36.17% | HEMOGLOBIN [4]: 13.93 G/DL | LEUKOCYTE COUNT [4]: 8.67 x10E3/uL | LYMPHOCYTE [4]: 94% | MEAN CORPUSCULAR HEMOGLOBIN [4]: 23.03 pg | MEAN CORPUSCULAR HEMOGLOBIN CONCENTRATION [4]: 38.53 G/DL | MEAN CORPUSCULAR VOLUME [4]: 59.7 fL | MONOCYTE [4]: 0.33% | NEUTROPHIL [4]: 5.67% | NUCLEATED RED BLOOD CELLS [4]: 0 /100WBC | PLATELET COUNT [4]: 1066.67 x10E3/uL | ALANINE AMINOTRANSFERASE [4]: 57 u/L | ALBUMIN [4]: 4.03 G/DL | ALKALINE PHOSPHATASE [4]: 326.67 u/L | ASPARTATE AMINOTRANSFERASE [4]: 78 u/L | BLOOD UREA NITROGEN [4]: 13.33 mg/dL | CARBON DIOXIDE [4]: 35.67 mmol/L | CHLORIDE [4]: 99.33 MEQ/L | CHOLESTEROL [4]: 75 mg/dL | CREATINE PHOSPHOKINASE [4]: 234.33 u/L | CREATININE [4]: 0.18 mg/dL | GLUCOSE [4]: 140 mg/dL | LACTATE DEHYDROGENASE [4]: 135.33 u/L | LIPASE [4]: 9.67 u/L | PHOSPHORUS [4]: 10.43 mg/dL | POTASSIUM [4]: 5.86 MEQ/L | SODIUM [4]: 143.57 MEQ/L | TOTAL BILIRUBIN [4]: 0.23 mg/dL | TOTAL PROTEIN [4]: 5.83 G/DL | URIC ACID [4]: 0.67 mg/dL
